Experiment [1] deals with Oct3/4. The experiment is described as follows: Oct3/4 immunocytochemistry, shikimic acid at different concentrations (Test Example 2-2). Particulars: for Ratio of Oct3/4-positive cells (%) Mean: NHDF-Neonatal, day 8. In kind it is cell-based, human. Here is the method:
(§1) Then, 400× images were obtained using the Carl Zeiss Confocal microscope LSM510 by immunocytochemistry using Oct3/4 antibody (Genetex, GTX100622, ×200) and Alexa Fluor® 488 goat anti-rabbit IgG. The ratio of Oct3/4-positive cells was determined by analyzing the Carl Zeiss Confocal microscopic images obtained from the Oct3/4 ICC experiment, for 4 or more images per sample, 5 on average.

The test system of experiment [2] is NHDF-Neonatal. Nature of the experiment: Colony-forming ability of dermal cells, crystal violet (Test Example 4-1). Particulars: shikimic acid, concentration not given; absorbance 580 nm. Format: cell-based, human. How it is done: (§2) On day 10 after subculturing, the cells (200 cells) were attached on a 60-mm plate. On day 23, the cells were washed with ice-cold PBS and then fixed with ice-cold methanol kept at −20° C. for 10 minutes. The cells were stained by treating for 5-10 minutes with a working solution, which had been prepared by diluting 1% crystal violet in an ethanol stock solution 1/10 with PBS, washed 4 times with PBS and then imaged. For quantitative analysis, the cells were eluted by treating with an elution buffer consisting of 50% ethanol, 40% DW, and 10% acetic acid for 5 minutes. Then, absorbance was measured at 580 nm after transferring 200 μL of the cells to a 96-well plate.

Experiment [3] deals with alkaline phosphatase (ALP). The experiment is described as follows: Alkaline phosphatase (ALP) staining, shikimic acid at different concentrations (Test Example 3-2). Format: cell-based, human. Particulars: 10 μM or 10 mM shikimic acid; day 12; versus normal HDF. The source says: On day 5 after the treatment, the cells (100,000 cells) were attached on a 6-well plate.
In experiment [4] the test system is NHDF-Neonatal. Nature of the experiment: Proliferating ability of dermal cells, WST-1 (Test Example 5). In kind it is cell-based, human. Particulars: 5 μg/mL shikimic acid; WST-1, absorbance 450 nm. How it is done:
2,000 NHDF-Neonatal (CC-2509, Lonza, USA) were attached on a 96-well plate. […] Then, we were subculturing it for 7 days (as confluency becomes to 90% or below on 7th day). After 6 days later, 10 μL of WST-1 was treated and absorbance was measured at 450 nm.
In general terms: Tetrazolium assays rely on reduction of a dye to a coloured formazan, in cell work by metabolically active cells.

In experiment [5] the test system is alkaline phosphatase (ALP). To be noted: 5 μg/mL shikimic acid; day 11.
Procedure: Untreated NHDF-Neonatal were used as a negative control group. On day 6 after the treatment, the cells (5,000 cells) were attached on a 12-well plate. 5 days later, i.e., on day 11, the cells were fixed with 3.8% formaldehyde in PBS and kept at room temperature for 15 minutes. Then, the cells were treated with 200 μL of the NBT/BCIP® ALP substrate solution diluted in 10 mL of ALP buffer, with 0.5 mL each time. 20 hours later, the cells were observed under the Olympus CKX41 optical microscope at 40× magnification.
The test system of experiment [6] is Oct3/4. Nature of the experiment: Oct3/4 immunocytochemistry after digitonin permeabilization (Test Example 2-1). In kind it is cell-based, human. To be noted: 5 μg/mL shikimic acid (water); permeabilized NHDF-Neonatal; day 4. How it is done: as §1
The subject of experiment [7] is NHDF-Neonatal. The experiment is described as follows: Colony-forming ability of dermal cells, crystal violet (Test Example 4-2). In kind it is cell-based, human. How it is done:
as §2, with “day 5” for “day 10”, “day 17,” for “day 23,”

Molecules are shown by their SMILES.

The text below walks through data of patent US10251824B2, “Method for inducing pluripotent stem cells and pluripotent stem cells prepared by said method” (AMOREPACIFIC CORPORATION, priority 2013, dated 2019).

For `O=C(O)C1=C[C@@H](O)[C@@H](O)[C@H](O)C1` [shikimic acid], the “Expression of the Oct3/4 gene in HDF (FIG. 11)” value in the experiment on Oct3/4 [1] (10 μM or 10 mM shikimic acid, compared to untreated normal HDF) is listed as “increased expression of the Oct3/4 gene”. In addition, the results for the “Ratio of Oct3/4-positive cells (%) Mean” value with Oct3/4 [1] (10 μM shikimic acid (water)), in the experiment on Oct3/4 [1] (10 mM shikimic acid (water)) and in the experiment with Oct3/4 [6] were 29%, 27% and 29%, respectively. The “Percentage of the cells positive for the Oct3/4 gene, on average” value in the experiment on Oct3/4 [1] (shikimic acid in water, 10 μM and 10 mM) is reported as 27-29%. The “Increase of colony-forming ability as compared to the negative control group (FIG. 16)” value in the experiment on NHDF-Neonatal [2] is on record as “about 3.8 times”. Moreover, in experiment [3], the “Expression of ALP (FIG. 13)” value was “the expression of ALP was increased remarkably”. Further, the “Increase of cell division as compared to the normal control group (FIG. 18)” value with NHDF-Neonatal [4] is 2 times. Further, the “Expression of ALP (FIG. 12)” value in experiment [5] was “increased expression of ALP”. The “Increase of colony-forming ability as compared to the negative control group (FIG. 17)” value with NHDF-Neonatal [7] (10 μM, 50 μM, 100 μM, 1 mM or 10 mM shikimic acid, absorbance 580 nm, day 17) is given as 1.27-5.06 times. Moreover, the “Crystal violet stained area, colony formation (FIG. 15)” value in the experiment on NHDF-Neonatal [7] (10 μM-10 mM shikimic acid, day 17, versus negative control) is given as “larger stained area”. Further, the “Colony-forming ability, comparison of concentrations (FIG. 17)” value in the experiment with NHDF-Neonatal [7] (1 mM shikimic acid) is on record as “the most increase in colony-forming ability”.
